The record followed here is ChEMBL document CHEMBL4706518, “Discovery of MGS0274, an ester prodrug of a metabotropic glutamate receptor 2/3 agonist with improved oral bioavailability” (Eur J Med Chem, 2020).

The source made the active and inactive calls. The rule behind the calls is not given here.

The target in series [1] is T1, Metabotropic glutamate receptor 8 (Homo sapiens, UniProt O00222). The series is described as follows: Antagonist activity at human mGlu8 receptor expressed in CHO cell membranes in presence of glutamate by GTPgammaS binding assay. In kind it is functional, Cell membrane. (GTPγS resists hydrolysis and so accumulates on activated G proteins.)
T1 sequence (O00222 whole entry): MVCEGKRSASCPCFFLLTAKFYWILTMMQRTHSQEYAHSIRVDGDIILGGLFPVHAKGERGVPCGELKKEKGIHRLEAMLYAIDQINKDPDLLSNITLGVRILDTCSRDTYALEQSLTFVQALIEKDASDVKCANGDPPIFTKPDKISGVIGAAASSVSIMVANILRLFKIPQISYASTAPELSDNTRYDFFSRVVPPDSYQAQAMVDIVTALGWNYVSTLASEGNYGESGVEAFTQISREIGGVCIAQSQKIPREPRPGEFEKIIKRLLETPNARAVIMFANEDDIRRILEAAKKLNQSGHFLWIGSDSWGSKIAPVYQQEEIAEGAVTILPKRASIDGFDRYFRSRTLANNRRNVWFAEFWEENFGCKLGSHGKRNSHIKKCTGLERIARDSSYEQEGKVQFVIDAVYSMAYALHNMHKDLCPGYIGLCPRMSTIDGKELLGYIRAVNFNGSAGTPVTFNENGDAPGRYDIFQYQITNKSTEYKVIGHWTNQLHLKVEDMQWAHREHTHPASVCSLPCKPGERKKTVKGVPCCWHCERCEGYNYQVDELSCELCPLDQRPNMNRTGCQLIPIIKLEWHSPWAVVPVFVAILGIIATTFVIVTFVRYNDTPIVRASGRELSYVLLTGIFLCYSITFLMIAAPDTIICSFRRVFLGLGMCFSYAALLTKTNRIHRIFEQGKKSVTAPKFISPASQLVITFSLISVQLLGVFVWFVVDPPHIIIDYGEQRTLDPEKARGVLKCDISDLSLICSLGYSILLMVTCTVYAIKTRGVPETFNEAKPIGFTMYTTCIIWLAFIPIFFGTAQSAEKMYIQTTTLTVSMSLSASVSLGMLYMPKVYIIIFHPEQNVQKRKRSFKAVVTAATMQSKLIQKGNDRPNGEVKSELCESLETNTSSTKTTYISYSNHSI
Series [2] addresses T2, Metabotropic glutamate receptor 4 (Homo sapiens, UniProt Q14833). The series is described as follows: Agonist activity at human mGlu4 receptor expressed in CHO cell membranes by GTPgammaS binding assay. It is filed as functional, Cell membrane.
The target in series [3] is T3, Metabotropic glutamate receptor 1 (Homo sapiens, UniProt Q13255). The series can be described thus: Antagonist activity at human mGlu1 receptor expressed in CHO cell membranes in presence of glutamate by intracellular Ca2+ assay. In kind it is functional, Cell membrane.
Series [4] deals with Glucocorticoid receptor (Homo sapiens) (UniProt P04150). The series is described as follows: Binding affinity to glucocorticoid receptor (unknown origin) 10 umol/L by radioligand binding assay. The settings on record: dose 10.0 µmol/L.
Sequence of Glucocorticoid receptor (Homo sapiens) (P04150 whole entry): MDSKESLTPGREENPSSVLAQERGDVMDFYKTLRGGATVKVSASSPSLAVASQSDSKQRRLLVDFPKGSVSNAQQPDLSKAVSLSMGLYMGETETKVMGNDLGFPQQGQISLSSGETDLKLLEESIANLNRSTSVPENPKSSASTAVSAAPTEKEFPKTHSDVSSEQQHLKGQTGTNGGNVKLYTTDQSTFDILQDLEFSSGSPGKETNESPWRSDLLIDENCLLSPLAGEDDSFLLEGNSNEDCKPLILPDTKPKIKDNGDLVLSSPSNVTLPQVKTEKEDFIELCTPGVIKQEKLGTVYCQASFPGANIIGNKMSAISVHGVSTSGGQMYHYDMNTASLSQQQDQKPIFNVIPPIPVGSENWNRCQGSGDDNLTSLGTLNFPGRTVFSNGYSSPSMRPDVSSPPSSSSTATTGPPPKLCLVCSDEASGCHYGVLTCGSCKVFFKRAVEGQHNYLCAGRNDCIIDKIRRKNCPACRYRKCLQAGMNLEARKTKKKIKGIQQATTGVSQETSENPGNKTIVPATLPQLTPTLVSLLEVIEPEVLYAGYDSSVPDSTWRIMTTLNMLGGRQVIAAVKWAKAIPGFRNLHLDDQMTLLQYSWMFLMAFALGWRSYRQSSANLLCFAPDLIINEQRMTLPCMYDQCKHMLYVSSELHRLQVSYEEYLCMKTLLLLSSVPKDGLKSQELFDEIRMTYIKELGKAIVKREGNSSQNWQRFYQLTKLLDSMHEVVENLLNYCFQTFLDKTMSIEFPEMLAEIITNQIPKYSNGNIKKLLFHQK
For series [5], the target named is T4, Metabotropic glutamate receptor 6 (Homo sapiens, UniProt O15303). The series can be described thus: Antagonist activity at human mGlu6 receptor expressed in HEK293T cell membranes in presence of glutamate by GTPgammaS binding assay. In kind it is functional, Cell membrane.
T4 sequence (O15303 whole entry): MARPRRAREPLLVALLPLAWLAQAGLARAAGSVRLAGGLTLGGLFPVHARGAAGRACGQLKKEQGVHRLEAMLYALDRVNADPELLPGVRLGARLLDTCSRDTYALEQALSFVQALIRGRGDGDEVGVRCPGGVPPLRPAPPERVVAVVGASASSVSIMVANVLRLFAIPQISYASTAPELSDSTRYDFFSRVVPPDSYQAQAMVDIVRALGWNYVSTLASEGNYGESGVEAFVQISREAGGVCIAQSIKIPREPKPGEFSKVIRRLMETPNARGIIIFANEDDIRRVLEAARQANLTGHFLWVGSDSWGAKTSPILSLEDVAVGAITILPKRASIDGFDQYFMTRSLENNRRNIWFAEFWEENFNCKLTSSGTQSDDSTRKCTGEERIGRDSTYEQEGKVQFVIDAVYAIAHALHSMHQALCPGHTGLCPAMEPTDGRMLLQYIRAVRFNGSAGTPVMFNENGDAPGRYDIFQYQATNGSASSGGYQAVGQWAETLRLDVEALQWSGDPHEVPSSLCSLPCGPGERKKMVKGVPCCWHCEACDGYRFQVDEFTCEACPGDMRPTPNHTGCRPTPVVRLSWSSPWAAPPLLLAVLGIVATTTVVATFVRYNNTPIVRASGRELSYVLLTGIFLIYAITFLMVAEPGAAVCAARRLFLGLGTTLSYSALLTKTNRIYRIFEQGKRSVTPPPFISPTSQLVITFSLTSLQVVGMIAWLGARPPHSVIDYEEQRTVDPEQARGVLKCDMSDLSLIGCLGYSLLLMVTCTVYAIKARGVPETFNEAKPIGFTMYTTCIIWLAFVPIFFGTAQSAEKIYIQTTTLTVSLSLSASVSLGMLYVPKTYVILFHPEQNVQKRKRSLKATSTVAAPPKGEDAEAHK
In series [6] the target is Vasoactive intestinal polypeptide receptor 1 (Homo sapiens) (UniProt P32241). The series is described as follows: Binding affinity to VIP1 receptor (unknown origin) 10 umol/L by radioligand binding assay. Conditions: dose 10.0 µmol/L.
Sequence of Vasoactive intestinal polypeptide receptor 1 (Homo sapiens) (P32241 whole entry): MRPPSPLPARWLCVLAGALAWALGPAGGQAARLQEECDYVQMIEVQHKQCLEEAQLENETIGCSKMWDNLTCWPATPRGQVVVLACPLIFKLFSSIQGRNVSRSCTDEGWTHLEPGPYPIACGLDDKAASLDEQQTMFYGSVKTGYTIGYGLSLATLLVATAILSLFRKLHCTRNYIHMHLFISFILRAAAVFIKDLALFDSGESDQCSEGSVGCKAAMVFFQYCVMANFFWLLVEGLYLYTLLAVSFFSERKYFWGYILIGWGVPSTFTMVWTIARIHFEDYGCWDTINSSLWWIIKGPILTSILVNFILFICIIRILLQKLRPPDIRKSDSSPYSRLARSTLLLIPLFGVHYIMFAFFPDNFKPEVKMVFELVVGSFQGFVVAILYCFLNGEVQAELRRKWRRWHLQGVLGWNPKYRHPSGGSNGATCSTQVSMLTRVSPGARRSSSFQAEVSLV
The target in series [7] is T2, Metabotropic glutamate receptor 4. The series is described as follows: Antagonist activity at human mGlu4 receptor expressed in CHO cell membranes in presence of glutamate by GTPgammaS binding assay. In kind it is functional, Cell membrane.
A short description of series [8]: Oral bioavailability in monkey at 4.92 umol/kg measured up to 24 hrs by LC-MS/MS analysis. It is filed as ADME, organism-based, Macaca mulatta. Conditions: rhesus monkey, in vivo, at 4.92 µmol/kg.
Series [9] has as its target T5, Metabotropic glutamate receptor 3 (Homo sapiens, UniProt Q14832). The series is described as follows: Agonist activity at human mGlu3 receptor expressed in CHO cell membranes by GTPgammaS binding assay. It is filed as functional, Cell membrane.
Series [10] has as its target Muscarinic acetylcholine receptor M2 (Homo sapiens) (UniProt P08172). The series can be described thus: Binding affinity to muscarinic M2 (unknown origin) 10 umol/L by radioligand binding assay. The settings on record: dose 10.0 µmol/L.
In series [11] the target is T1, Metabotropic glutamate receptor 8. The series can be described thus: Agonist activity at human mGlu8 receptor expressed in CHO cell membranes by GTPgammaS binding assay. In kind it is functional, Cell membrane.
Series [12] concerns the target T4, Metabotropic glutamate receptor 6. The series can be described thus: Agonist activity at human mGlu6 receptor expressed in HEK293T cell membranes by GTPgammaS binding assay. In kind it is functional, Cell membrane.
In series [13] the target is Metabotropic glutamate receptor 3 (Rattus norvegicus) (UniProt P31422). The series can be described thus: Agonist activity at rat mGlu3 receptor expressed in CHO cell membranes by GTPgammaS binding assay relative to control. In kind it is functional. The settings on record: Cell membrane, filed as agonist.
The target in series [14] is T5, Metabotropic glutamate receptor 3. The series is described as follows: Antagonist activity at human mGlu3 receptor expressed in CHO cell membranes in presence of glutamate by GTPgammaS binding assay. It is filed as functional, Cell membrane.
Series [15] deals with T3, Metabotropic glutamate receptor 1. The series is described as follows: Agonist activity at human mGlu1 receptor expressed in CHO cell membranes by intracellular Ca2+ assay. In kind it is functional, Cell membrane.
The target in series [16] is Metabotropic glutamate receptor 3 (Rattus norvegicus, UniProt P31422). The series is described as follows: Agonist activity at rat mGlu3 receptor expressed in CHO cell membranes by GTPgammaS binding assay. It is filed as functional, Cell membrane.
The species named for the next series is Homo sapiens. The series is described as follows: Binding affinity to AMPA receptor (unknown origin) 10 umol/L by radioligand binding assay. Conditions: dose 10.0 µmol/L.
Series [17] has as its target 5-hydroxytryptamine receptor 2A (Homo sapiens) (UniProt P28223). The series can be described thus: Binding affinity to 5-HT2A receptor (unknown origin) 10 umol/L by radioligand binding assay. The settings on record: dose 10.0 µmol/L.
Series [18] deals with Metabotropic glutamate receptor 2 (Homo sapiens, UniProt Q14416). The series is described as follows: Agonist activity at human mGlu2 receptor expressed in CHO cell membranes by GTPgammaS binding assay. In kind it is functional, Cell membrane.

T5 sequence (Q14832 whole entry): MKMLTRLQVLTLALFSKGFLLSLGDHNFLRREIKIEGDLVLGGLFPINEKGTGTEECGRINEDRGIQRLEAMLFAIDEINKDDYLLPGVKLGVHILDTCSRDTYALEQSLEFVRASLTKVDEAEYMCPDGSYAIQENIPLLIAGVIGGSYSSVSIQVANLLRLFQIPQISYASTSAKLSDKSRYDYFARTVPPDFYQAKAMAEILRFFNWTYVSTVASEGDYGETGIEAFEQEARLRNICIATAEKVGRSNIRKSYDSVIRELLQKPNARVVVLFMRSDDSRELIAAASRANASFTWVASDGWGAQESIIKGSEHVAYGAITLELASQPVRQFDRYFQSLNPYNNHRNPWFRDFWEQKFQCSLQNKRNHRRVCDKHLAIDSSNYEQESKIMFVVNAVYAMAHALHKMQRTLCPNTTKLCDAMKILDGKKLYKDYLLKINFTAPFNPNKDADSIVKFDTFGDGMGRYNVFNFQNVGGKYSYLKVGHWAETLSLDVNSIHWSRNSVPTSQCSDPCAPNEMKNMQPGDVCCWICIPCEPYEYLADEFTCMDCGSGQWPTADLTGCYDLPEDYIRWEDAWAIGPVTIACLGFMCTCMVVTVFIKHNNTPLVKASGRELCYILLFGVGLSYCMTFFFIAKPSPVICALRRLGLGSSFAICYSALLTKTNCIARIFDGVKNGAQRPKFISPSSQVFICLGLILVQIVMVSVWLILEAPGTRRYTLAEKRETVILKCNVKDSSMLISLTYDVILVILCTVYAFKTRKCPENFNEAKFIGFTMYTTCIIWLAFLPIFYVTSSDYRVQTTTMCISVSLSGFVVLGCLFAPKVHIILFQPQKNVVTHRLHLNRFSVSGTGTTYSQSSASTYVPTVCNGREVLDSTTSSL
Sequence of Muscarinic acetylcholine receptor M2 (Homo sapiens) (P08172 whole entry): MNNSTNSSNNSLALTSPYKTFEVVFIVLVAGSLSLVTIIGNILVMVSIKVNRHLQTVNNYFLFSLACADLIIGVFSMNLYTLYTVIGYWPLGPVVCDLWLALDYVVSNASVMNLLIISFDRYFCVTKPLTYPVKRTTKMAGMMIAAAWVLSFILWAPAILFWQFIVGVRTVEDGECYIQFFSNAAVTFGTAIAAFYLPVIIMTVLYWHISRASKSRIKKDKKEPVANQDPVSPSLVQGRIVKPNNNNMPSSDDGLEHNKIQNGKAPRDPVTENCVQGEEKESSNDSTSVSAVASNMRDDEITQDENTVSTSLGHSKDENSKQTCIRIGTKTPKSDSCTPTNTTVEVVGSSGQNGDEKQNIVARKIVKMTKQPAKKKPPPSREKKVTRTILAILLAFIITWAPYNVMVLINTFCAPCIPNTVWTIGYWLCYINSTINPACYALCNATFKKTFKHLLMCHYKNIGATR
Sequence of 5-hydroxytryptamine receptor 2A (Homo sapiens) (P28223 whole entry): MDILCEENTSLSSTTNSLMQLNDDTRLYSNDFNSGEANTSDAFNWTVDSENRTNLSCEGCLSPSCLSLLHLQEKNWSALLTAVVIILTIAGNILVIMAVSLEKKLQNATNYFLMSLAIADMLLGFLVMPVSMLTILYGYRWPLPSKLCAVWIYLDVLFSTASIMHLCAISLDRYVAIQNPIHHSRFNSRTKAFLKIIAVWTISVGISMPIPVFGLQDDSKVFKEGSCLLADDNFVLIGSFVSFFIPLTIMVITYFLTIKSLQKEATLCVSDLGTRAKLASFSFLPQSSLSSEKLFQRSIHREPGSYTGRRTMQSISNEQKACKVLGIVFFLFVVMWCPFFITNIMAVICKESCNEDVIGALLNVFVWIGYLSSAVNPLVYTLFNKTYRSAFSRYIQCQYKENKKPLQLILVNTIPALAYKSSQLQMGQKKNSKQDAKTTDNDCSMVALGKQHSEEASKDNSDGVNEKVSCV

In general, IC50 refers to the concentration that inhibits the measured activity by half. As a reminder, the EC50 is the concentration that produces a half-maximal response. Usually bioavailability stands for the share of a dose that reaches the circulation, judged against a reference dose that is usually intravenous. In general, Emax refers to the size of the effect at its maximum, as opposed to the concentration needed. In the case of `N[C@]1(C(=O)O)[C@H]2[C@@H](C[C@@H]1F)[C@@H]2C(=O)O`, the IC50 in series [1], in [3], in series [5], in [7] and in series [14] was more than 30 µM each time. Moreover, the EC50 was more than 30 µM in [2]; 75.9 nM in series [9]; more than 30 µM in series [11]; more than 30 µM in series [12]; more than 30 µM in [15]; 96.9 nM in series [16]. Moreover, the outcome (in [4]; in series [6]; in series [10]; in the series filed under Homo sapiens; in [17]) was inactive. In series [8], the bioavailability was 4%. Besides, the Emax in series [13] was determined as 99.7%.

Regarding `CC(C)[C@@H]1CC[C@@H](C)C[C@H]1OC(=O)O[C@@H](C)OC(=O)[C@H]1[C@@H]2C[C@H](F)[C@@](N)(C(=O)O)[C@@H]21`, the result (in series [4]; in series [6]; in series [10]; in the series filed under Homo sapiens; in series [17]) was inactive. Moreover, the EC50 was more than 30 µM in series [18] and more than 30000 nM in [9].
